According to ChEMBL document CHEMBL5252631, “A pharmacophore-based approach to demonstrating the scope of alcohol dehydrogenases” (Bioorg Med Chem, 2023):

What was measured:
[1] = Substrate activity at ADH105 (unknown origin) assessed as specific enzyme activity using NADH as cofactor at 2.5 to 10 mM measured for 30 mins in presence of 20% hexane-Tris HCL buffer by UV-Vis spectroscopy analysis; settings: dose 2.5-10 mM
[2] = Substrate activity at ADH105 (unknown origin) assessed as specific enzyme activity using NADH as cofactor at 2.5 to 10 mM measured for 30 mins in presence of Tris HCL buffer by UV-Vis spectroscopy analysis; settings: Homo sapiens, dose 2.5-10 mM
[3] = Substrate activity at ADH101 (unknown origin) assessed as specific enzyme activity using NADH as cofactor at 2.5 to 10 mM measured for 30 mins in presence of 20% hexane-Tris HCL buffer by UV-Vis spectroscopy analysis; settings: Homo sapiens, dose 2.5-10 mM
[4] = Substrate activity at ADH101 (unknown origin) assessed as specific enzyme activity using NADH as cofactor at 2.5 to 10 mM measured for 30 mins in presence of Tris HCL buffer by UV-Vis spectroscopy analysis; settings: dose 2.5-10 mM
[5] = Substrate activity at ADH20 (unknown origin) assessed as specific enzyme activity using NADPH as cofactor at 2.5 to 10 mM measured for 30 mins in presence of Tris HCL buffer by UV-Vis spectroscopy analysis; settings: Homo sapiens, dose 2.5-10 mM
[6] = Substrate activity at ADH61 (unknown origin) assessed as specific enzyme activity using NADPH as cofactor at 2.5 to 10 mM measured for 30 mins in presence of Tris HCL buffer by UV-Vis spectroscopy analysis; settings: Homo sapiens, dose 2.5-10 mM
[7] = Substrate activity at ADH150 (unknown origin) assessed as specific enzyme activity using NADPH as cofactor at 2.5 to 10 mM measured for 30 mins in presence of Tris HCL buffer by UV-Vis spectroscopy analysis; settings: Homo sapiens, dose 2.5-10 mM
[8] = Substrate activity at ADH19 (unknown origin) assessed as specific enzyme activity using NADPH as cofactor at 2.5 to 10 mM measured for 30 mins in presence of Tris HCL buffer by UV-Vis spectroscopy analysis; settings: Homo sapiens, dose 2.5-10 mM

Compound | Activity [1] [nmol/min/mg] | Activity [2] [nmol/min/mg] | Activity [3] [nmol/min/mg] | Activity [4] [nmol/min/mg] | Activity [5] [nmol/min/mg] | Activity [6] [nmol/min/mg] | Activity [7] [nmol/min/mg] | Activity [8] [nmol/min/mg]
CC(=O)c1ccccc1Br | 39.5 | 6.37 | 38 | 75.1 |  |  |  | 
CC(=O)c1ccc(Br)cc1F | 366 |  | 57.7 | 15.9 |  |  |  | 
COc1cccc(C(C)=O)c1 | 397 |  | 13.8 |  |  |  |  | 
CC(=O)c1cccnc1 | 163 | 121 | 34 | 9.45 |  |  |  | 
CC(=O)c1ccc(F)nc1 | 137 | 182 | 51 | 24.7 |  |  |  | 
COc1cc(OC)cc(C(C)=O)c1 | 363 |  | 59.2 |  |  |  |  | 
CC(=O)c1ccc(F)cc1 | 122 | 86.4 | 22.9 | 26.4 |  |  |  | 
CC(=O)c1ccc(N)cc1 | 80.4 | 21.3 | 43.9 | 5.03 |  |  |  | 
CC(=O)c1cncnc1 | 50.5 |  | 45.2 |  |  |  |  | 
CC(=O)c1ccc(C(F)(F)F)nc1 | 210 |  | 80.9 |  |  |  |  | 
CC(=O)c1cc[nH]n1 | 20.7 |  | 5.6 |  | 24.1 | 10.7 | 11.8 | 10.3
CCOc1ccc(C(C)=O)cc1 | 196 | 81.1 | 19.9 | 4.37 |  |  |  | 
CC(=O)c1cc(F)ccc1O |  |  | 42.8 |  |  |  |  | 
CC(=O)c1ccccc1 | 99.1 | 142 | 54.1 | 43.1 |  |  |  | 
CC(=O)c1cccc(Br)c1 | 142 | 1.9 | 12.2 | 19.9 |  |  |  | 
O=c1[nH]c(=O)c2nc[nH]c2[nH]1 | 15.9 | 9.28 |  | 319 |  |  |  | 
CC(=O)c1ccc(Cl)nc1 | 92 | 371 | 62.5 | 32.2 |  |  |  | 
CC(=O)c1ccc(NS(C)(=O)=O)cc1 | 203 |  |  |  |  |  |  | 
CC(C)(C)NCC(=O)c1cc(Cl)c(N)c(Cl)c1 | 34.6 |  |  |  | 18.8 | 29 | 6.55 | 10.4
CC(=O)c1cc(C(F)(F)F)cc(C(F)(F)F)c1 | 57.3 | 29.6 | 17.4 | 4.51 |  |  |  | 

Compound | Activity [1] [nmol/min/mg] | Activity [2] [nmol/min/mg] | Activity [3] [nmol/min/mg] | Activity [4] [nmol/min/mg] | Activity [5] [nmol/min/mg] | Activity [6] [nmol/min/mg] | Activity [7] [nmol/min/mg] | Activity [8] [nmol/min/mg]
CC(=O)c1ccc(B2OC(C)(C)C(C)(C)O2)cc1 | 87 |  | 465 |  |  |  |  | 
CC(=O)c1cnccn1 | 185 |  | 53.2 |  |  |  |  | 
CC(=O)c1ccc2c(c1)OCO2 | 189 | 70.1 | 34.2 | 17.7 |  |  |  | 
O=C(c1ccccc1)c1ccccc1 | 14.3 | 12.8 | 73.9 | 35.7 | 41.1 |  | 69.9 | 
CC(=O)c1ccc(I)cc1 | 117 |  | 51.3 |  |  |  |  | 
COc1ccc(C(C)=O)cc1 | 221 |  | 24.6 |  |  |  |  | 
CC(=O)c1nccn1C | 20.7 |  | 14.7 |  |  |  |  | 
CC(=O)c1ccccn1 | 60.3 | 70.4 | 35.5 | 22.2 |  |  |  | 
COc1cc(C(C)=O)cc(OC)c1OC | 89.9 | 154 |  | 11.7 |  |  |  | 
CC(=O)/C=C/c1ccccc1 | 62.1 | 6.97 | 67.2 | 60.7 |  |  |  | 
O=C(c1ccccc1)C(F)(F)F | 29.4 | 19.1 | 46.2 | 9.22 |  |  |  | 
O=C1CN2CCC1CC2 | 23.4 | 13 | 85.3 |  |  |  |  | 
CC(=O)c1cccc(C#N)c1 | 173 |  | 57.4 |  |  |  |  | 
CC(=O)c1ccc(Br)cc1 | 158 | 56.1 | 73.1 | 38.1 |  |  |  | 
CC(=O)c1cccc(O)c1 | 157 | 82.4 | 14.8 | 4.76 |  |  |  | 
COc1ccc2[nH]cc(CCNC(C)=O)c2c1 | 21.7 |  |  |  |  |  |  | 
CC(=O)c1ccc(Br)nc1 | 269 |  | 33.2 |  |  |  |  | 
COc1ccc2c(c1)CCCC2=O | 36 | 9 |  | 6.9 | 31.3 | 56.4 | 7.83 | 14.3
CC(=O)c1ccc(Br)c(F)c1 | 242 |  | 103 | 46.3 |  |  |  | 
CCc1ccc(OC)c(C(C)=O)c1 | 64 | 14.1 | 52.9 | 49.8 |  |  |  | 

Compound | Activity [1] [nmol/min/mg] | Activity [2] [nmol/min/mg] | Activity [3] [nmol/min/mg] | Activity [4] [nmol/min/mg] | Activity [5] [nmol/min/mg] | Activity [6] [nmol/min/mg] | Activity [7] [nmol/min/mg] | Activity [8] [nmol/min/mg]
CCCCCCCCC(C)=O | 37.1 | 8.95 | 25.7 | 39.5 |  |  |  | 
CC(=O)c1ccc2ccccc2c1 | 54 |  | 37 | 7.68 |  |  |  | 
CC(=O)c1ccccc1O |  | 23.1 |  | 11.3 |  |  |  | 
CC(=O)C1CC1 | 98.2 |  | 82.8 |  |  |  |  | 
CC(=O)c1ccc(Br)cc1O | 27.2 |  | 10 | 112 |  |  |  | 
CNCC(=O)c1cccc(O)c1 | 17.4 | 20.8 | 12.4 |  | 67.2 |  | 38.6 | 6.78
CC(=O)c1cnc2ccccc2c1 | 229 |  | 13.7 |  |  |  |  | 
CC(=O)c1ccc(C[C@H](N)C(=O)O)cc1 | 62.2 |  | 10.2 |  | 55.7 | 123 | 33.7 | 7.76
CC(=O)C1CCCCC1 | 112 | 233 | 52.3 | 167 |  |  |  | 
O=C(CBr)c1ccccc1 | 337 | 18.7 | 89.2 | 44.6 |  |  |  | 
COc1ccc(C(C)=O)cc1OC | 220 |  | 59.8 |  |  |  |  | 
CC(=O)CCc1ccccc1 | 364 |  | 95.7 | 109 |  |  |  | 
O=C(CCl)c1ccc(F)c(F)c1 | 112 | 131 | 87.1 | 83.1 |  |  |  | 
CC(=O)Cc1ccccc1 | 239 | 274 | 22.2 | 5.98 |  |  |  | 
CC(=O)c1ccc([N+](=O)[O-])cc1 | 593 |  | 130 | 99.9 |  |  |  | 
COc1ccccc1C(C)=O | 83 | 13.4 |  | 2.46 |  |  |  | 
CC(=O)c1ccc(O)cc1 | 31.5 | 39.5 |  |  |  | 12.7 |  | 12.8
CC(=O)C1CCCC1 | 218 |  | 123 |  |  |  |  | 
